Assay results taken from PubChem BioAssay AID192 (DTP/NCI, 2004).
“And” between values parts separate entries of the source, which are not always exact repeats. Identical values can stand only once. Inconclusive results and toxic doses are left out.

System: BDF1 mice, B16 melanoma ip, median survival T/C
Assay: NCI In Vivo Anticancer Drug Screen. Data for tumor model B16 Melanoma (intraperitoneal) in B6D2F1 (BDF1) mice
Details: endpoint: median survival time, higher = longer survival
In short: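 Antitumor activity is assessed in mice bearing a transplanted tumor, with survival or tumor size compared against vehicle-dosed controls and expressed as T/C.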

[1] = dose: 50.0 mg/kg/injection, schedule: Q01DX009 (ip), vehicle: Klucel (hydroxypropylcellulose) (HPC)
[2] = dose: 100.0 mg/kg/injection, schedule: Q01DX009 (ip), vehicle: Klucel (hydroxypropylcellulose) (HPC)
[3] = dose: 200.0 mg/kg/injection, schedule: Q01DX009 (ip), vehicle: Klucel (hydroxypropylcellulose) (HPC)
[4] = dose: 100.0 mg/kg/injection, schedule: Q04DX003 (ip), vehicle: Klucel (hydroxypropylcellulose) (HPC)
[5] = dose: 200.0 mg/kg/injection, schedule: Q04DX003 (ip), vehicle: Klucel (hydroxypropylcellulose) (HPC)
[6] = dose: 50.0 mg/kg/injection, schedule: Q01DX009 (ip), vehicle: saline with Tween-80
[7] = dose: 100.0 mg/kg/injection, schedule: Q01DX009 (ip), vehicle: saline with Tween-80
[8] = dose: 200.0 mg/kg/injection, schedule: Q01DX009 (ip), vehicle: saline with Tween-80
[9] = dose: 400.0 mg/kg/injection, schedule: Q01DX009 (ip), vehicle: saline with Tween-80
[10] = dose: 12.5 mg/kg/injection, schedule: Q01DX009 (ip), vehicle: saline with Tween-80
[11] = dose: 25.0 mg/kg/injection, schedule: Q01DX009 (ip), vehicle: saline with Tween-80

Compound: Cn1c(CCCC(=O)O)nc2cc(N(CCCl)CCCl)ccc21
- T/C (dose: 1.0 mg/kg/injection, schedule: Q01DX009 (ip), vehicle: saline): 115 % of control
- T/C (dose: 2.0 mg/kg/injection, schedule: Q01DX009 (ip), vehicle: saline): 94 % of control
- T/C (dose: 2.5 mg/kg/injection, schedule: Q01DX009 (ip), vehicle: saline): 157 % of control
- T/C (dose: 4.0 mg/kg/injection, schedule: Q01DX009 (ip), vehicle: saline): 103 % of control
- T/C (dose: 5.0 mg/kg/injection, schedule: Q01DX009 (ip), vehicle: saline): 152 % of control
- T/C (dose: 6.0 mg/kg/injection, schedule: Q01DX009 (ip), vehicle: saline): 101 % of control
- T/C (dose: 8.0 mg/kg/injection, schedule: Q01DX009 (ip), vehicle: saline): 159 % of control
- T/C (dose: 10.0 mg/kg/injection, schedule: Q01DX009 (ip), vehicle: saline): 157 % of control and 186 % of control
- T/C (dose: 12.0 mg/kg/injection, schedule: Q01DX009 (ip), vehicle: saline): 115 % of control
- T/C (dose: 20.0 mg/kg/injection, schedule: Q01DX009 (ip), vehicle: saline): 89 % of control

Compound: COc1c(NC(=O)CC(C)=O)cccc1NC(=O)CC(C)=O
- T/C [1]: 120 % of control
- T/C [2]: 104 % of control
- T/C [3]: 97 % of control

Compound: Nc1ccccc1SC1CC(=O)N(c2cccc3ccccc23)C1=O (centres undefined)
- T/C (dose: 1.56 mg/kg/injection, schedule: Q01DX009 (ip), vehicle: Klucel (hydroxypropylcellulose) (HPC)): 98 % of control
- T/C (dose: 3.12 mg/kg/injection, schedule: Q01DX009 (ip), vehicle: Klucel (hydroxypropylcellulose) (HPC)): 96 % of control
- T/C (dose: 6.25 mg/kg/injection, schedule: Q01DX009 (ip), vehicle: Klucel (hydroxypropylcellulose) (HPC)): 88 % of control and 94 % of control
- T/C (dose: 12.5 mg/kg/injection, schedule: Q01DX009 (ip), vehicle: Klucel (hydroxypropylcellulose) (HPC)): 86 % of control
- T/C [2]: 94 % of control and 96 % of control
- T/C [4]: 100 % of control
- T/C [3]: 92 % of control
- T/C [5]: 100 % of control
- T/C (dose: 400.0 mg/kg/injection, schedule: Q01DX009 (ip), vehicle: Klucel (hydroxypropylcellulose) (HPC)): 92 % of control
- T/C (dose: 400.0 mg/kg/injection, schedule: Q04DX003 (ip), vehicle: Klucel (hydroxypropylcellulose) (HPC)): 93 % of control

Compound: COc1cc2c(c(OC)c1OC)-c1ccc(OC)c(=O)cc1[C@@H](NC(=O)CCl)CC2
- T/C (dose: 0.25 mg/kg/injection, schedule: Q01DX009 (ip), vehicle: saline with Tween-80): 154 % of control
- T/C (dose: 0.5 mg/kg/injection, schedule: Q01DX009 (ip), vehicle: saline with Tween-80): 161 % of control

Compound: CCOC(=O)NC1=C(N2CC2)C(=O)C(NC(=O)OCC)=C(N2CC2)C1=O
- T/C (dose: 0.13 mg/kg/injection, schedule: Q03HX016 (ip), vehicle: water): 96 % of control
- T/C (dose: 0.25 mg/kg/injection, schedule: Q01DX009 (ip), vehicle: saline): 100 % of control
- T/C (dose: 0.25 mg/kg/injection, schedule: Q03HX016 (ip), vehicle: water): 93 % of control
- T/C (dose: 0.5 mg/kg/injection, schedule: Q01DX009 (ip), vehicle: saline): 110 % of control
- T/C (dose: 0.75 mg/kg/injection, schedule: Q01DX009 (ip), vehicle: saline): 120 % of control
- T/C (dose: 1.0 mg/kg/injection, schedule: Q01DX001 (oral), vehicle: water): 96 % of control
- T/C (dose: 1.0 mg/kg/injection, schedule: Q03HX024 (ip), vehicle: water): 91 % of control
- T/C (dose: 3.0 mg/kg/injection, schedule: Q01DX009 (ip), vehicle: saline with Tween-80): 162 % of control
- T/C (dose: 3.0 mg/kg/injection, schedule: Q01DX009 (ip), vehicle: saline): 160 % of control
- T/C (dose: 5.0 mg/kg/injection, schedule: Q01DX005 (ip), vehicle: saline with Tween-80): 194 % of control
- T/C (dose: 16.0 mg/kg/injection, schedule: Q01DX009 (oral), vehicle: water): 86 % of control

Compound: Cc1ccccc1OCC(O)CO (centres undefined)
- T/C [6]: 92 % of control
- T/C [7]: 110 % of control
- T/C [8]: 110 % of control
- T/C [9]: 105 % of control

Compound: O=c1sc(N=Nc2ccccc2)nn1-c1ccccc1
- T/C [4]: 94 % of control
- T/C [5]: 89 % of control

Compound: COC(=O)C(CCCN)NC(=O)c1ccccc1 (centres undefined)
- T/C (dose: 50.0 mg/kg/injection, schedule: Q01DX009 (ip), vehicle: saline): 95 % of control
- T/C (dose: 100.0 mg/kg/injection, schedule: Q01DX009 (ip), vehicle: saline): 102 % of control
- T/C (dose: 200.0 mg/kg/injection, schedule: Q01DX009 (ip), vehicle: saline): 107 % of control
- T/C (dose: 400.0 mg/kg/injection, schedule: Q01DX009 (ip), vehicle: saline): 97 % of control

Compound: CCCCCCCCCC(O)CCC (centres undefined)
- T/C (dose: 25.0 mg/kg/injection, schedule: Q01DX009 (ip), vehicle: Klucel (hydroxypropylcellulose) (HPC)): 103 % of control
- T/C [1]: 99 % of control
- T/C [2]: 92 % of control

Compound: CC(=O)CCc1ccc(O)cc1
- T/C [7]: 90 % of control
- T/C [8]: 100 % of control
- T/C [9]: 92 % of control

Compound: O=C(Nc1ccc(Cl)cc1)Nc1ccccc1Cl
- T/C (dose: 4.5 mg/kg/injection, schedule: Q01DX009 (ip), vehicle: gum acacia): 102 % of control
- T/C (dose: 9.0 mg/kg/injection, schedule: Q01DX009 (ip), vehicle: gum acacia): 97 % of control
- T/C (dose: 18.0 mg/kg/injection, schedule: Q01DX009 (ip), vehicle: gum acacia): 90 % of control
- T/C (dose: 100.0 mg/kg/injection, schedule: Q01DX009 (ip), vehicle: gum acacia): 89 % of control

Compound: CC(N)CCc1ccccc1 (centres undefined)
- T/C (dose: 12.5 mg/kg/injection, schedule: Q04DX003 (ip), vehicle: saline): 100 % of control
- T/C (dose: 25.0 mg/kg/injection, schedule: Q04DX003 (ip), vehicle: saline): 108 % of control
- T/C (dose: 50.0 mg/kg/injection, schedule: Q04DX003 (ip), vehicle: saline): 111 % of control

Compound: CC(C)[C@]12O[C@H]1[C@@H]1O[C@]13[C@]1(O[C@H]1C[C@H]1C4=C(C(=O)OC4)[C@@H](O)C[C@@]13C)[C@@H]2O
- T/C (dose: 12.5 micrograms/kg/injection, schedule: Q01DX009 (ip), vehicle: saline + alcohol): 112 % of control
- T/C (dose: 25.0 micrograms/kg/injection, schedule: Q01DX009 (ip), vehicle: saline + alcohol): 110 % of control
- T/C (dose: 50.0 micrograms/kg/injection, schedule: Q01DX009 (ip), vehicle: saline + alcohol): 110 % of control
- T/C (dose: 63.0 micrograms/kg/injection, schedule: Q01DX009 (ip), vehicle: saline + alcohol): 102 % of control
- T/C (dose: 100.0 micrograms/kg/injection, schedule: Q01DX009 (ip), vehicle: saline + alcohol): 122 % of control
- T/C (dose: 125.0 micrograms/kg/injection, schedule: Q01DX009 (ip), vehicle: saline + alcohol): 111 % of control
- T/C (dose: 250.0 micrograms/kg/injection, schedule: Q01DX009 (ip), vehicle: saline + alcohol): 107 % of control

Compound: C=CCNCCN1CCN(CCCN2c3ccccc3Sc3ccc(C(F)(F)F)cc32)CC1
- T/C (dose: 6.25 mg/kg/injection, schedule: Q01DX009 (ip), vehicle: saline): 105 % of control
- T/C (dose: 9.37 mg/kg/injection, schedule: Q04DX003 (ip), vehicle: saline): 100 % of control
- T/C (dose: 12.5 mg/kg/injection, schedule: Q01DX009 (ip), vehicle: saline): 110 % of control
- T/C (dose: 18.75 mg/kg/injection, schedule: Q04DX003 (ip), vehicle: saline): 97 % of control
- T/C (dose: 55.0 mg/kg/injection, schedule: Q04DX003 (ip), vehicle: saline): 91 % of control

Compound: O=C1NC(c2ccccc2)N=C2Oc3ccccc3C=C12 (centres undefined)
- T/C (dose: 1.56 mg/kg/injection, schedule: Q01DX009 (ip), vehicle: saline with Tween-80): 107 % of control
- T/C (dose: 3.12 mg/kg/injection, schedule: Q01DX009 (ip), vehicle: saline with Tween-80): 109 % of control and 113 % of control
- T/C (dose: 6.25 mg/kg/injection, schedule: Q01DX009 (ip), vehicle: saline with Tween-80): 108 % of control and 117 % of control
- T/C [10]: 117 % of control
- T/C [11]: 117 % of control

Compound: CCCCCCCCCCCC(=O)N(CCCC)CCCC
- T/C (dose: 37.5 mg/kg/injection, schedule: Q01DX009 (ip), vehicle: Klucel (hydroxypropylcellulose) (HPC)): 101 % of control
- T/C (dose: 75.0 mg/kg/injection, schedule: Q01DX009 (ip), vehicle: Klucel (hydroxypropylcellulose) (HPC)): 101 % of control
- T/C (dose: 150.0 mg/kg/injection, schedule: Q01DX009 (ip), vehicle: Klucel (hydroxypropylcellulose) (HPC)): 97 % of control

Compound: CCO/C=C1\SC(=S)N(c2ccc(C(=O)O)cc2)C1=O
- T/C [10]: 107 % of control
- T/C [11]: 115 % of control
- T/C [6]: 110 % of control

Compound: CN(CCOc1ccccc1O)CCOc1ccccc1O
- T/C [2]: 111 % of control
- T/C [3]: 105 % of control
